Measurements: the supplement of paper PMC10627819

Experiments:
Assay in all cases: fitness (endpoint OD595 vs no drug) (fraction); higher = more growth
S. aureus DSM 20231 = system: S. aureus DSM 20231
Method in brief: (§1)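 Growth medium was TSB, LB Lennox or CY, and plates were kept at 37 °C. Inoculation was at OD595 0.01 in 384-well plates, at 30 µl per well or 55 µl for S. pneumoniae. OD595 was monitored every 30 min for 14 h and background-subtracted using the first reading. Fitness is the optical density on entering stationary phase divided by the robust mean of no-drug controls, with values capped at 1.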

B. subtilis 168 = system: B. subtilis 168
Method in brief: as §1

S. aureus Newman = system: S. aureus Newman
Method in brief: as §1

S. pneumoniae D39V = system: S. pneumoniae D39V
Method in brief: as §1
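Further: OD595 on entry to stationary phase over no-drug wells; at most 1.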

CC[C@H]1OC(=O)[C@H](C)[C@@H](O[C@H]2C[C@@](C)(OC)[C@@H](O)[C@H](C)O2)[C@H](C)[C@@H](O[C@@H]2O[C@H](C)C[C@H](N(C)C)[C@H]2O)[C@](C)(O)C[C@@H](C)CN(C)[C@H](C)[C@@H](O)[C@]1(C)O [Azithromycin] + CN(C)[C@@H]1C(O)=C(C(N)=O)C(=O)[C@@]2(O)C(O)=C3C(=O)c4c(O)ccc(Cl)c4[C@@](C)(O)[C@H]3C[C@@H]12 [Chlortetracycline]
one replicate
Conditions | fitness
B. subtilis 168, first compound 2 µg/mL, partner 0.0475 µg/mL | 0.0292
B. subtilis 168, first compound 2 µg/mL, partner 0.095 µg/mL | 0.0192
B. subtilis 168, first compound 2 µg/mL, partner 0.19 µg/mL | 0.025
S. aureus DSM 20231, first compound 0.125 µg/mL, partner 0.006 µg/mL | 0.629
S. aureus DSM 20231, first compound 0.25 µg/mL, partner 0.006 µg/mL | 0.46
S. aureus DSM 20231, first compound 0.5 µg/mL, partner 0.006 µg/mL | 0.0187

fitness
Conditions | first compound 0.125 µg/mL | first compound 0.25 µg/mL | first compound 0.5 µg/mL
B. subtilis 168, partner 0.0475 µg/mL | – | 0.824 | –
S. aureus DSM 20231, partner 0.012 µg/mL | – | – | 0.0274
S. aureus DSM 20231, partner 0.024 µg/mL | 0.112 | 0.0335 | 0.0241
S. aureus DSM 20231, partner 0.048 µg/mL | 0.0779 | 0.0451 | 0.0364

CC[C@H]1OC(=O)[C@H](C)[C@@H](O[C@H]2C[C@@](C)(OC)[C@@H](O)[C@H](C)O2)[C@H](C)[C@@H](O[C@@H]2O[C@H](C)C[C@H](N(C)C)[C@H]2O)[C@](C)(O)C[C@@H](C)CN(C)[C@H](C)[C@@H](O)[C@]1(C)O [Azithromycin] + CO[C@@]12[C@H](COC(N)=O)C3=C(C(=O)C(C)=C(N)C3=O)N1C[C@@H]1N[C@@H]12 [Mitomycin C]
fitness
Conditions | first compound 0.125 µg/mL | first compound 0.25 µg/mL | first compound 0.5 µg/mL
S. aureus DSM 20231, partner 0.0156 µg/mL | 0.674 | 0.701 | 0.366
S. aureus DSM 20231, partner 0.0312 µg/mL | 0.661 | 0.664 | 0.314
S. aureus DSM 20231, partner 0.0625 µg/mL | 0.547 | 0.491 | 0.171
S. aureus Newman, partner 0.0156 µg/mL | 0.719 | 0.726 | 0.561
S. aureus Newman, partner 0.0312 µg/mL | 0.671 | 0.638 | 0.53
S. aureus Newman, partner 0.0625 µg/mL | 0.559 | 0.551 | 0.365

O=C(O)[C@H]1/C(=C/CO)O[C@@H]2CC(=O)N21 [Clavulanic acid] + C[n+]1ccc(-c2cc[n+](C)cc2)cc1 [Paraquat]
fitness
Conditions | first compound 0.5 µg/mL | first compound 1 µg/mL | first compound 1.5 µg/mL | first compound 2 µg/mL | first compound 3 µg/mL | first compound 6 µg/mL
B. subtilis 168, partner 1.25 µg/mL | – | – | 0.93 | – | 0.87 | 0.773
B. subtilis 168, partner 2.5 µg/mL | – | – | 0.96 | – | 0.812 | 0.728
B. subtilis 168, partner 5 µg/mL | – | – | 0.835 | – | 0.77 | 0.672
S. pneumoniae D39V, partner 1.5 µg/mL | 0.99 | 0.973 | – | 0.875 | – | –
S. pneumoniae D39V, partner 3 µg/mL | ≥ 1 | 0.962 | – | 0.896 | – | –
S. pneumoniae D39V, partner 6 µg/mL | 0.991 | 0.941 | – | 0.863 | – | –

fitness, S. aureus Newman, one replicate
Conditions | first compound 0.03125 µg/mL | first compound 0.0625 µg/mL | first compound 0.125 µg/mL
partner 1.25 µg/mL | 0.952 | 0.99 | 0.843
partner 2.5 µg/mL | 0.98 | 0.983 | 0.943
partner 5 µg/mL | 0.99 | ≥ 1 | 0.89

O=C(O)[C@H]1/C(=C/CO)O[C@@H]2CC(=O)N21 [Clavulanic acid] + Cc1cc(NS(=O)(=O)c2ccc(N)cc2)no1 [Sulfamethoxazol]
fitness
Conditions | first compound 0.5 µg/mL | first compound 1 µg/mL | first compound 1.5 µg/mL | first compound 2 µg/mL | first compound 3 µg/mL | first compound 6 µg/mL
B. subtilis 168, partner 1 µg/mL | – | – | 0.853 | – | 0.816 | 0.704
B. subtilis 168, partner 2 µg/mL | – | – | 0.883 | – | 0.839 | 0.733
B. subtilis 168, partner 4 µg/mL | – | – | 0.93 | – | 0.943 | 0.798
S. pneumoniae D39V, partner 1 µg/mL | 0.985 | 0.914 | – | 0.836 | – | –
S. pneumoniae D39V, partner 2 µg/mL | 0.982 | 0.93 | – | 0.904 | – | –
S. pneumoniae D39V, partner 4 µg/mL | 0.949 | 0.856 | – | 0.786 | – | –

fitness, one replicate
Conditions | first compound 0.03125 µg/mL | first compound 0.0625 µg/mL | first compound 0.125 µg/mL | first compound 1.5 µg/mL | first compound 3 µg/mL | first compound 6 µg/mL
B. subtilis 168, partner 0.5 µg/mL | – | – | – | 0.974 | 0.903 | 0.952
S. aureus Newman, partner 1 µg/mL | 0.994 | ≥ 1 | 0.951 | – | – | –
S. aureus Newman, partner 2 µg/mL | 0.974 | ≥ 1 | 0.929 | – | – | –
S. aureus Newman, partner 4 µg/mL | 0.983 | ≥ 1 | 0.929 | – | – | –

O=C(O)[C@H]1/C(=C/CO)O[C@@H]2CC(=O)N21 [Clavulanic acid] + Cc1ncc([N+](=O)[O-])n1CCO [Metronidazole]
fitness
Conditions | partner 0.625 µg/mL | partner 1.073 µg/mL | partner 1.25 µg/mL | partner 2.145 µg/mL | partner 2.5 µg/mL | partner 4.29 µg/mL | partner 5 µg/mL
B. subtilis 168, first compound 1.5 µg/mL | 0.93 | – | 0.97 | – | 0.976 | – | –
B. subtilis 168, first compound 3 µg/mL | 0.909 | – | 0.89 | – | 0.886 | – | –
B. subtilis 168, first compound 6 µg/mL | 0.794 | – | 0.762 | – | 0.772 | – | –
S. pneumoniae D39V, first compound 0.5 µg/mL | – | 0.946 | ≥ 1 | 0.946 | ≥ 1 | 0.858 | ≥ 1
S. pneumoniae D39V, first compound 1 µg/mL | – | 0.931 | 0.957 | 0.926 | 0.971 | 0.89 | 0.959
S. pneumoniae D39V, first compound 2 µg/mL | – | 0.839 | 0.801 | 0.779 | 0.828 | 0.829 | 0.805

fitness, S. aureus Newman, one replicate
Conditions | first compound 0.03125 µg/mL | first compound 0.0625 µg/mL | first compound 0.125 µg/mL
partner 0.625 µg/mL | 0.976 | 0.94 | 0.85
partner 1.25 µg/mL | 0.96 | ≥ 1 | 0.891
partner 2.5 µg/mL | 0.996 | ≥ 1 | 0.852
